Results: article PMC10935023 (Acta Pharmaceutica Sinica. B, 2023)

How the values were obtained:
CRS mice [1] = assay: Morris water maze; type: in vivo, mouse
scopolamine-treated mice = assay: NOR in scopolamine-induced cognitive deficit; type: in vivo, mouse
normal mice = assay: Novel object recognition; type: in vivo, mouse
CRS mice [2] = assay: FST in chronic restraint stress; type: in vivo, mouse
CRS mice [3] = assay: TST in chronic restraint stress; type: in vivo, mouse
SERT = SERT (Rattus norvegicus, UniProt P31652); assay: [3H]5-HT uptake by crude synaptosomes; type: biochemical
5-HT2C = 5-HT2C (Homo sapiens, UniProt P28335); assay: Receptor binding, [3H]-Mesulergine; settings: read-out: % Inhibition of binding by D01 (10 μmol/L)
mice [4] = assay: Tail suspension test; type: in vivo, mouse; settings: i.g., 60 min before test, doses 10, 30, 100 mg/kg
D1 = D1 (Homo sapiens, UniProt P21728); assay: Receptor binding, [3H]-SCH23390; settings: read-out: % Inhibition of binding by D01 (10 μmol/L)
α2 = assay: Receptor binding, [3H]-Rauwolscine; settings: α2, 10 μmol/L
H3 = H3 (Homo sapiens, UniProt Q9Y5N1); assay: Receptor binding, [3H]-Methylhistamine; settings: read-out: % Inhibition of binding by D01 (10 μmol/L)
Chain of H3 (Q9Y5N1 whole entry): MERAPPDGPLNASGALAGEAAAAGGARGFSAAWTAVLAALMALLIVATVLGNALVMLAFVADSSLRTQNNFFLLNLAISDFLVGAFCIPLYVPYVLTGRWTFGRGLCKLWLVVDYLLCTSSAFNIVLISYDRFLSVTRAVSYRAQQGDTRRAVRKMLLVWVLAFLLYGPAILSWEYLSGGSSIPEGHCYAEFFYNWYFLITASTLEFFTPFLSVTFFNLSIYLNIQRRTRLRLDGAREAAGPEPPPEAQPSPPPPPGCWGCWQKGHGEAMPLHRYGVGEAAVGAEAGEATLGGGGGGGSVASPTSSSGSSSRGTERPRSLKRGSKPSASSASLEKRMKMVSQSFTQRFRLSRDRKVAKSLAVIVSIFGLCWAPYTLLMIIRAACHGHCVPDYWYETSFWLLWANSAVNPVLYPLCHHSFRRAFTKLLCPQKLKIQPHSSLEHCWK

5-HT1A = 5-HT1A (Homo sapiens, UniProt P08908); assay: Receptor binding, [3H]-8-OH-DPAT; settings: read-out: % Inhibition of binding by D01 (10 μmol/L)
Chain of 5-HT1A (P08908 whole entry, species assumed): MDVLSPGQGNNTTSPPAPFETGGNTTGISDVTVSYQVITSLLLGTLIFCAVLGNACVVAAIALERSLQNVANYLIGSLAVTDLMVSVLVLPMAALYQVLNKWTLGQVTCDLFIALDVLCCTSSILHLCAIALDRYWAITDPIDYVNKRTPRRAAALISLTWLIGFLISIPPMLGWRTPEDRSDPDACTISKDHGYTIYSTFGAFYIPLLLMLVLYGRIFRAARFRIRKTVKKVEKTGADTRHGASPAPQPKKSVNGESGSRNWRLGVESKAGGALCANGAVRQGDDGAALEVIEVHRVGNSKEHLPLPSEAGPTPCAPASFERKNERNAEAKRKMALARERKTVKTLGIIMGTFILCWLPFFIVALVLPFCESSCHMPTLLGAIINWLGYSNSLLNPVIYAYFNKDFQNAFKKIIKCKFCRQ

hippocampal neurons = assay: Resting membrane potential and firing of cultured hippocampal neurons; type: cell-based, rat; settings: 100 μmol/L
[5] = biological target: serotonin transporter (SERT) (Rattus norvegicus, UniProt P31652); type: binding
Chain of serotonin transporter (SERT) (P31652 whole entry): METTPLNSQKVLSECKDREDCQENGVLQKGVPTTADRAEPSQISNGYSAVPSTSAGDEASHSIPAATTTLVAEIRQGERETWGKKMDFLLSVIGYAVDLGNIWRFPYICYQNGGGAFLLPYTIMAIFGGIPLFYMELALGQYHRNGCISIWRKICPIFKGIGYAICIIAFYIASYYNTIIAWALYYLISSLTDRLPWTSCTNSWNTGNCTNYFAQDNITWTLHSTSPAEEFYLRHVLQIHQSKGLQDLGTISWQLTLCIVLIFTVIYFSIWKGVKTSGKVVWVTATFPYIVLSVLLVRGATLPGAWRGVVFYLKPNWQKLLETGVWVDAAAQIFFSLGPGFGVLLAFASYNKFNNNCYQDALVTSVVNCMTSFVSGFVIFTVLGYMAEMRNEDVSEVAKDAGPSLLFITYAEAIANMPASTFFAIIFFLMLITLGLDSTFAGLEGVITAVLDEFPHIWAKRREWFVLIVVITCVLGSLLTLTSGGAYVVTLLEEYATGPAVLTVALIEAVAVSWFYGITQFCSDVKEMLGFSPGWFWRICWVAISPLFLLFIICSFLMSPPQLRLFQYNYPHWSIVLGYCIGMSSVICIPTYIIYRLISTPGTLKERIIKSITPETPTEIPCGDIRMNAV

α1 = assay: Receptor binding, [3H]-Prazosin
hippocampal slices, CA1 = assay: LTP recording; type: in vivo, mouse; settings: 30 mg/kg i.p. + scopolamine 1 mg/kg i.p.
mice [6] = assay: Forced swimming test; type: in vivo, mouse; settings: i.g., 1 h before test, doses 10, 30, 100 mg/kg
5-HT1B = 5-HT1B (Homo sapiens, UniProt P28222); assay: Receptor binding, [3H]-GR-125743; settings: read-out: % Inhibition of binding by D01 (10 μmol/L)
Chain of 5-HT1B (P28222 whole entry, species assumed): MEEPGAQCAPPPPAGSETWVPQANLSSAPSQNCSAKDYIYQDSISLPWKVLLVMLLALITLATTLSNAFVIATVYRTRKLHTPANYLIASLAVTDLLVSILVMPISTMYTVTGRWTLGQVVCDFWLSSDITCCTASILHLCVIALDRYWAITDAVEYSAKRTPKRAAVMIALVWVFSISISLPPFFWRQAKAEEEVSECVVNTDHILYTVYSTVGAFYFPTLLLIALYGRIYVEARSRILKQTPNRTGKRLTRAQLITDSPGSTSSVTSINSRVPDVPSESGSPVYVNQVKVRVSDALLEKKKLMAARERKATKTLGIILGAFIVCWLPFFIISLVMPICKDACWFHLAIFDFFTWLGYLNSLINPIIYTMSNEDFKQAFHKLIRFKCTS

Sigma-1 = Sigma-1 (Homo sapiens, UniProt Q99720); assay: Receptor binding, [3H]-Pentazocine; settings: read-out: % Inhibition of binding by D01 (10 μmol/L)
native KCNQ/M channels = assay: Whole-cell recording of native M current in cultured hippocampal neurons; settings: measured at −60 mV
D2 = D2 (Homo sapiens, UniProt P14416); assay: Receptor binding, [3H]-Spiperone; settings: read-out: % Inhibition of binding by D01 (10 μmol/L)
Chain of D2 (P14416 whole entry): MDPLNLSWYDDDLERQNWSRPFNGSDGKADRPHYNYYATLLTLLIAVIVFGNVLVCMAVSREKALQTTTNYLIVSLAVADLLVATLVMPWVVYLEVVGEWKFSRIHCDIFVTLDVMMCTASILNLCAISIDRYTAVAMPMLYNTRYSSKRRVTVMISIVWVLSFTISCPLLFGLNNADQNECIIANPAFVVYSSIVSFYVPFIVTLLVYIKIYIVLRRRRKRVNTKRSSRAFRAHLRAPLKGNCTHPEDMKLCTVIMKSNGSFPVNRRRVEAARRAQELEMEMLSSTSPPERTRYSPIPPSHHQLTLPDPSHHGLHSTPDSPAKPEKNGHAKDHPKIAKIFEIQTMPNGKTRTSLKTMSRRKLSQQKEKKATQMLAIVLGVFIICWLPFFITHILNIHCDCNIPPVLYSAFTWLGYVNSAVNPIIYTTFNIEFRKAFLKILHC

M1 = M1 (Homo sapiens, UniProt P11229); assay: Receptor binding, [3H]-QNB; settings: read-out: % Inhibition of binding by D01 (10 μmol/L)
KCNQ2/3 channels = KCNQ2/3 channels (Homo sapiens, UniProt O43525+O43526); type: cell-based
Chain of KCNQ2/3 channels (O43525 whole entry): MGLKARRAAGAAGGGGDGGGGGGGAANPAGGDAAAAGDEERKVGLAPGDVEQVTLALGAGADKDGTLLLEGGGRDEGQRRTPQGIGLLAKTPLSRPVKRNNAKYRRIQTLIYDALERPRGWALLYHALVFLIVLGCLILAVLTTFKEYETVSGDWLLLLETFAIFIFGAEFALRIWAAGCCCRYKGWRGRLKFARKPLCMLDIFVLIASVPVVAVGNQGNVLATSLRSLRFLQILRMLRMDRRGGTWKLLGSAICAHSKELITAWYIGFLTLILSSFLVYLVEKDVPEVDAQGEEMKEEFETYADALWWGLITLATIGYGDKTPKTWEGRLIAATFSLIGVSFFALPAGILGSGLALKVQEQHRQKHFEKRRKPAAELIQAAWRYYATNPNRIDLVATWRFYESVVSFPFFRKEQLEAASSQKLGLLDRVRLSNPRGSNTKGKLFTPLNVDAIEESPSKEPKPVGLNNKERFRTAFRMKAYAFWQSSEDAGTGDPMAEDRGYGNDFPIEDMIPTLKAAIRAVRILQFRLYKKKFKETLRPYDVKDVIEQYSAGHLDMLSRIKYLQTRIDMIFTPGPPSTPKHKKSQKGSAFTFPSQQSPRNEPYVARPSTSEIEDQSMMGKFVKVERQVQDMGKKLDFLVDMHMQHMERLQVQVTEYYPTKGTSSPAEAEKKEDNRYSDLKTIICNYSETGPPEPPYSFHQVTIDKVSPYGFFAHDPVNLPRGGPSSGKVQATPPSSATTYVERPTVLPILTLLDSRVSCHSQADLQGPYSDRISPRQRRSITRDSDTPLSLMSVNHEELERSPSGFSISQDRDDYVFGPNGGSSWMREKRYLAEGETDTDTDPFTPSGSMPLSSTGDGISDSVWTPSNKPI
Chain of KCNQ2/3 channels (O43526 whole entry): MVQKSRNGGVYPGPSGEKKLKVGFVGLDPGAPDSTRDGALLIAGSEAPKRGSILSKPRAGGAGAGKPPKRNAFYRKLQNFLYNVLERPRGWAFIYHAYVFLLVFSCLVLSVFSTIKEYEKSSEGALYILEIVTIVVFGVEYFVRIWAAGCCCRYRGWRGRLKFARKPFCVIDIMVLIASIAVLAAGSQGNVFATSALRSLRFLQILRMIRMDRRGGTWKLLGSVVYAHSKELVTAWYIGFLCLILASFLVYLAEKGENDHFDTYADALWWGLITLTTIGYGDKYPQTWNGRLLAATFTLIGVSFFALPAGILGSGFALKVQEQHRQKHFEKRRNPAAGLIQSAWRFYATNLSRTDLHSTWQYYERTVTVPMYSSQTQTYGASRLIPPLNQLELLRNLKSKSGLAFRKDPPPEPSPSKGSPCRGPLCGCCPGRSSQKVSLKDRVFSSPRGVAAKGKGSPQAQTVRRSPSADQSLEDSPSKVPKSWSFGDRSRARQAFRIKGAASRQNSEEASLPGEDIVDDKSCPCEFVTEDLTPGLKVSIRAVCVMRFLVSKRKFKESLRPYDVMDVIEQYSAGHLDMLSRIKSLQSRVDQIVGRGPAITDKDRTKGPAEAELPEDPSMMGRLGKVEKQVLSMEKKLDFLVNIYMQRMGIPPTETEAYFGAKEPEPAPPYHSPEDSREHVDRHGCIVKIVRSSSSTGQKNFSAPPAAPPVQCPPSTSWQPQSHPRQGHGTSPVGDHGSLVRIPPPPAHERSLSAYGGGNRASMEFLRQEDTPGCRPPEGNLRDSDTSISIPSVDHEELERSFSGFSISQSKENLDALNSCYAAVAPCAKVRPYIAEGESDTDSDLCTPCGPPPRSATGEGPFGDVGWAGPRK

H1 = H1 (Homo sapiens, UniProt P35367); assay: Receptor binding, [3H]-Pyrilamine
Chain of H1 (P35367 whole entry): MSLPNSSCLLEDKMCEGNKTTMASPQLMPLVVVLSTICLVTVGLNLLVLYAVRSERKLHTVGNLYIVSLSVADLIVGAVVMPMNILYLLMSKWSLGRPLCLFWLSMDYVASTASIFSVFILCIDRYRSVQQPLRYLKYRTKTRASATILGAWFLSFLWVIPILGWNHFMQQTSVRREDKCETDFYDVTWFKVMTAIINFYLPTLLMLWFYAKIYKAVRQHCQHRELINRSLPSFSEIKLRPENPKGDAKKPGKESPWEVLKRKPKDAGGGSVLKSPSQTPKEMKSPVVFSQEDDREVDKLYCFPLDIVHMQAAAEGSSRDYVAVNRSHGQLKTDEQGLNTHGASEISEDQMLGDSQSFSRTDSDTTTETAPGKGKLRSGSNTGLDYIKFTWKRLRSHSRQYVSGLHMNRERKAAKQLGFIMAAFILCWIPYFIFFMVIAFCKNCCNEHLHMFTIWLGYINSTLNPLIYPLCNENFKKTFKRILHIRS

animals = assay: Observation of epileptic behavior in treated animals; type: in vivo; settings: up to 100 mg/kg
NMDA = assay: Receptor binding, [3H]-MK801
5-HT2A = 5-HT2A (Homo sapiens, UniProt P28223); assay: Receptor binding, [3H]-Ketanserin; settings: read-out: % Inhibition of binding by D01 (10 μmol/L)
D3 = D3 (Homo sapiens, UniProt P35462); assay: Receptor binding, [3H]-Spiperone; settings: read-out: % Inhibition of binding by D01 (10 μmol/L)
Chain of D3 (P35462 whole entry): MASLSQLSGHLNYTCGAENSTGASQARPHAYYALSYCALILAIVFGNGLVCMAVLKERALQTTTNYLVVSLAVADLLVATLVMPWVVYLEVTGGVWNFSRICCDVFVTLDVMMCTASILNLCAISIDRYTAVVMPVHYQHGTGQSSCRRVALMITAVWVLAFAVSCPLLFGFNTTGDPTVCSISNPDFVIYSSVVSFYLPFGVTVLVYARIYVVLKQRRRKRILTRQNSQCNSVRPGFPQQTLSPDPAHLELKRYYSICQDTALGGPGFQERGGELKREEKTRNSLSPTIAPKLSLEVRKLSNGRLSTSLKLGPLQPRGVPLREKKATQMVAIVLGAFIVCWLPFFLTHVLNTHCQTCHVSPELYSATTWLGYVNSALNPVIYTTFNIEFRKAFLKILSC

[7] = fluoxetine 20 mg/kg i.g., 21 days

CNCCC(Oc1ccc(C(F)(F)F)cc1)c1ccccc1 (centres unmarked) [fluoxetine, reference compound]
effect on escape latency (CRS mice [1]; fluoxetine 20 mg/kg i.g.): did not show any significant effect | effect on time and distance in target quadrant, probe trial Day 5 (CRS mice [1]; fluoxetine 20 mg/kg i.g.): did not exhibit any noticeable effects | improvement in scopolamine-induced cognitive impairment (scopolamine-treated mice; scopolamine 1 mg/kg i.p. + fluoxetine 100 mg/kg i.g.): did not show any noticeable improvement | difference in time spent on novel and familiar objects (normal mice; fluoxetine 100 mg/kg i.g.): no obvious difference | immobility time in FST (CRS mice [2]; [7]): 18.7 ± 6.3 s | immobility time in TST (CRS mice [3]; [7]): 69.8 ± 14.9 s

CCN(C)C(=O)Oc1cccc([C@H](C)N(C)C)c1 [rivastigmine, reference compound]
improvement in scopolamine-induced cognitive impairment (scopolamine-treated mice; scopolamine 1 mg/kg i.p. + 0.01 mg/kg s.c.): did not show any noticeable improvement

CC(CN(C)C)C(Oc1cccc2ccccc12)c1cccs1 (centres unmarked) [Compound D01, N,N,2-trimethyl-3-(1-naphthyloxy)-3-(thien-2-yl) propan-1-amine]
IC50 (SERT): 0.045 ± 0.009 µM | inhibition at 10 µM (5-HT2C): 38% | minimal effective dose (MED), immobility in TST (mice [4]): 10 mg/kg | inhibition at 10 µM (D1): 16.3% | % Inhibition of binding by D01 (10 μmol/L) (α2): 38.43% | inhibition at 10 µM (H3): 13.9% | distance traveled while crossing the target zone, probe trial Day 5 (CRS mice [1]; 10 mg/kg i.g.): 4748.7 ± 308.1 cm | escape latency after four days of training (CRS mice [1]; 10 mg/kg i.g.): 37.3 ± 3.1 s | initial escape latency (CRS mice [1]; 10 mg/kg i.g.): 51.1 ± 2.5 s | distance traveled while crossing the target zone, probe trial Day 5 (CRS mice [1]; 20 mg/kg i.g.): 4501.3 ± 266.5 cm | escape latency after four days of training (CRS mice [1]; 20 mg/kg i.g.): 32.2 ± 3.6 s | initial escape latency (CRS mice [1]; 20 mg/kg i.g.): 45.7 ± 3.7 s | time in the target quadrant, probe trial Day 5 (CRS mice [1]; 20 mg/kg i.g.): 15.8 ± 0.8 s | distance traveled while crossing the target zone, probe trial Day 5 (CRS mice [1]; 40 mg/kg i.g.): 4357.5 ± 310.9 cm | escape latency after four days of training (CRS mice [1]; 40 mg/kg i.g.): 30.1 ± 3.9 s | initial escape latency (CRS mice [1]; 40 mg/kg i.g.): 42.6 ± 3.5 s | time in the target quadrant, probe trial Day 5 (CRS mice [1]; 40 mg/kg i.g.): 16.2 ± 0.8 s | inhibition at 10 µM (5-HT1A): -24.1% | effect on resting membrane potential (hippocampal neurons): depolarizes | significant increase of firing frequency (hippocampal neurons): did not observe | Ki [5]: 0.0301 ± 0.0069 µM | discrimination index (DI) (scopolamine-treated mice; scopolamine 1 mg/kg i.p. + 10 mg/kg i.g.): 0.21 ± 0.08 | discrimination index (DI) (scopolamine-treated mice; scopolamine 1 mg/kg i.p. + 30 mg/kg i.g.): 0.36 ± 0.03 | discrimination index (DI) (scopolamine-treated mice; scopolamine 1 mg/kg i.p. + 100 mg/kg i.g.): 0.45 ± 0.05 | IC50 (α1; read-out: IC50 for D01, α1): > 10 µM | % Inhibition of binding by D01 (10 μmol/L) (α1; α1, 10 μmol/L): 56.21% | effect on scopolamine-induced LTP inhibition (hippocampal slices, CA1): significantly reversed | minimal effective dose (MED), immobility in FST (mice [6]): 30 mg/kg | inhibition at 10 µM (5-HT1B): 12% | inhibition at 10 µM (Sigma-1): 34% | effect on native M current (native KCNQ/M channels; 100 μmol/L): dramatically inhibits | inhibition at 10 µM (D2): 16.1% | inhibition at 10 µM (M1): 24.7% | IC50 (KCNQ2/3 channels): 10.1 ± 2.4 µM | IC50 (H1): > 10 µM | inhibition at 10 µM (H1; read-out: % Inhibition of binding by D01 (10 μmol/L)): 61.8% | time spent on familiar object (normal mice; 30 mg/kg i.g.): 7.20 ± 2.73 s | time spent on novel object (normal mice; 30 mg/kg i.g.): 18.10 ± 6.42 s | time spent on familiar object (normal mice; 100 mg/kg i.g.): 10.90 ± 2.50 s | time spent on novel object (normal mice; 100 mg/kg i.g.): 21.90 ± 4.84 s | epileptic behavior (animals): did not observe | immobility time in FST (CRS mice [2]; 20 mg/kg i.g., 21 days (D01)): 54.53 ± 18.11 s | immobility time in FST (CRS mice [2]; 40 mg/kg i.g., 21 days): 44.62 ± 17.03 s | % Inhibition of binding by D01 (10 μmol/L) (NMDA): 9.83% | immobility time in TST (CRS mice [3]; 20 mg/kg i.g., 21 days (D01)): 87.61 ± 12.04 s | immobility time in TST (CRS mice [3]; 40 mg/kg i.g., 21 days): 68.17 ± 20.30 s | inhibition at 10 µM (5-HT2A): 25.1% | inhibition at 10 µM (D3): 32.8%

O=C1c2ccccc2C(Cc2ccncc2)(Cc2ccncc2)c2ccccc21 [XE991, reference compound]
effect on time and distance in target quadrant, probe trial Day 5 (CRS mice [1]; XE991 1 mg/kg s.c.): did not exhibit any noticeable effects | escape latency after four days of training (CRS mice [1]; XE991 1 mg/kg s.c.): 33.4 ± 3.4 s | initial escape latency (CRS mice [1]; XE991 1 mg/kg s.c.): 48.9 ± 3.4 s | discrimination index (DI) (scopolamine-treated mice; scopolamine 1 mg/kg i.p. + XE991 1 mg/kg s.c.): 0.36 ± 0.04 | effect on native M current (native KCNQ/M channels; 3 μmol/L): inhibited | time spent on familiar object (normal mice; 1 mg/kg s.c.): 16.50 ± 2.63 s | time spent on novel object (normal mice; 1 mg/kg s.c.): 38.40 ± 3.80 s | reduction of immobility in FST (CRS mice [2]; 1 mg/kg s.c.): not statistically significant | reduction of immobility in TST (CRS mice [3]; 1 mg/kg s.c.): not statistically significant

CCOC(=O)Nc1ccc(NCc2ccc(F)cc2)cc1N [RTG, retigabine]
effect on native M current (native KCNQ/M channels; 10 μmol/L): activated
